± gives the expanded uncertainty stated by the source.
Tests used:
[1] = molar heat capacity at constant pressure; settings: 101.33 kPa, Small (less than 1 g) adiabatic calorimetry
[2] = Molar enthalpy of transition or fusion; settings: Adiabatic calorimetry

NC12CC3CC(CC(C3)C1)C2 [tricyclo(3.3.1.1:3,7)decan-1-amine]
[1]
Settings | molar heat capacity at constant pressure [J/K/mol]
5 K, Crystal 3 | 0.4688 ± 0.025
10 K, Crystal 3 | 3.505 ± 0.062
15 K, Crystal 3 | 9.163 ± 0.12
20 K, Crystal 3 | 15.65 ± 0.17
25 K, Crystal 3 | 21.75 ± 0.19
30 K, Crystal 3 | 26.96 ± 0.2
35 K, Crystal 3 | 31.21 ± 0.22
40 K, Crystal 3 | 34.7 ± 0.24
45 K, Crystal 3 | 37.68 ± 0.26
50 K, Crystal 3 | 40.29 ± 0.27
60 K, Crystal 3 | 44.98 ± 0.29
70 K, Crystal 3 | 49.57 ± 0.32
80 K, Crystal 3 | 54.53 ± 0.34
90 K, Crystal 3 | 59.87 ± 0.39
100 K, Crystal 3 | 65.39 ± 0.42
110 K, Crystal 3 | 71.11 ± 0.45
120 K, Crystal 3 | 77.06 ± 0.47
130 K, Crystal 3 | 83.31 ± 0.5
140 K, Crystal 3 | 89.8 ± 0.5
150 K, Crystal 3 | 96.61 ± 0.58
160 K, Crystal 3 | 103.8 ± 0.58
170 K, Crystal 3 | 111.5 ± 0.67
180 K, Crystal 3 | 119.5 ± 0.67
190 K, Crystal 3 | 128 ± 0.75
200 K, Crystal 3 | 136.9 ± 0.75
210 K, Crystal 3 | 146.4 ± 0.83
220 K, Crystal 3 | 156.5 ± 0.83
230 K, Crystal 3 | 167.1 ± 0.92
240 K, Crystal 3 | 178.3 ± 1
241.4 K, Crystal 2 | 179.9 ± 1
241.4 K, Crystal 3 | 179.9 ± 1
250 K, Crystal 2 | 190.2 ± 1
260 K, Crystal 2 | 202.7 ± 1.1
270 K, Crystal 2 | 215.9 ± 1.2
280 K, Crystal 2 | 230 ± 1.2
284.6 K, Crystal 1 | 263.6 ± 1.4
284.6 K, Crystal 2 | 236.6 ± 1.2
290 K, Crystal 1 | 264.7 ± 1.4
298.15 K, Crystal 1 | 266.4 ± 1.4
300 K, Crystal 1 | 266.8 ± 1.4
310 K, Crystal 1 | 268.9 ± 1.4
320 K, Crystal 1 | 271.1 ± 1.4
330 K, Crystal 1 | 273.1 ± 1.4
340 K, Crystal 1 | 275.5 ± 1.4
350 K, Crystal 1 | 278.5 ± 1.4
360 K, Crystal 1 | 282.1 ± 1.5
370 K, Crystal 1 | 286.4 ± 1.5

[2]
Settings | Molar enthalpy of transition or fusion [kcal/mol]
Crystal 2 | 1.269 ± 0.00287
Crystal 3 | 0.41 ± 0.00574
